pKi: −log10 of the molar value. Like-named read-outs stand apart in the source and are kept apart here.
What was measured:
[1] = molecular target: T1, cloned human m1 muscarinic receptor (Homo sapiens, UniProt P11229); experiment: Muscarinic binding activity: inhibition of 3H-QNB binding, m1
T1 construct: expressed in transfected cells; host or cells: CHO cells, stably transfected (membranes)
T1 sequence (P11229 1-460): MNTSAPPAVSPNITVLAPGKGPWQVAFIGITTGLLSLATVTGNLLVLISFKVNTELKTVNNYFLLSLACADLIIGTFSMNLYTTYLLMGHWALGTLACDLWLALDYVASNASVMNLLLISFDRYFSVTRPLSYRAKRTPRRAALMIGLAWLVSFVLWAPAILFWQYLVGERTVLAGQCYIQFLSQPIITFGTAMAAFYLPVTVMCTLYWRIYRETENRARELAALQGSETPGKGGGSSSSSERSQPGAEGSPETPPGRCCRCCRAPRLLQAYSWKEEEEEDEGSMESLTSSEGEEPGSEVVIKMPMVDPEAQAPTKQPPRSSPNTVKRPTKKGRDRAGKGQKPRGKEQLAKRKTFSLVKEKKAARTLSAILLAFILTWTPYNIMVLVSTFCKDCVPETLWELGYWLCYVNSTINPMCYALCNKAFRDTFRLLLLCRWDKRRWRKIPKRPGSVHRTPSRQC

[2] = molecular target: T2, cloned human m2 muscarinic receptor (Homo sapiens, UniProt P08172); experiment: Muscarinic binding activity: inhibition of 3H-QNB binding, m2 (and m2 selectivity); conditions: for m2 Selectivity Ratio (Ki,m1/Ki,m2): Ki for m1 divided by Ki for m2, higher = greater m2 selectivity
T2 construct: expressed in transfected cells; host or cells: CHO cells, stably transfected (membranes)
T2 sequence (P08172 1-466): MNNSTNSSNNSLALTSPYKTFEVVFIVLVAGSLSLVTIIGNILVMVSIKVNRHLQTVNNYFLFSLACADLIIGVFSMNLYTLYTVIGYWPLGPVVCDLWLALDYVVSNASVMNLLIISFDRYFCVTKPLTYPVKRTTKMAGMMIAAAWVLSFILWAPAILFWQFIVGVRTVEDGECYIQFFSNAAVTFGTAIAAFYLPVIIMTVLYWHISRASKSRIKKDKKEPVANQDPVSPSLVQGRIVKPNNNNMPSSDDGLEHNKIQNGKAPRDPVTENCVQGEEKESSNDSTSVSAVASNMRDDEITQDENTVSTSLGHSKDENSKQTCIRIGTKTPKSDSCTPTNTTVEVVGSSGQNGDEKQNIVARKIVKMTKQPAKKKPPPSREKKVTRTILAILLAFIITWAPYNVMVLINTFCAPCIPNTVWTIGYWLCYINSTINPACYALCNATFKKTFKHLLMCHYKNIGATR

[3] = molecular target: T3, cloned human m4 muscarinic receptor (Homo sapiens, UniProt P08173); experiment: Muscarinic binding activity: inhibition of 3H-QNB binding, m4 (and m4 selectivity); conditions: for m4 Selectivity Ratio (Ki,m4/Ki,m2): Ki for m4 divided by Ki for m2
T3 construct: expressed in transfected cells; host or cells: CHO cells, stably transfected (membranes)
T3 sequence (P08173 1-479): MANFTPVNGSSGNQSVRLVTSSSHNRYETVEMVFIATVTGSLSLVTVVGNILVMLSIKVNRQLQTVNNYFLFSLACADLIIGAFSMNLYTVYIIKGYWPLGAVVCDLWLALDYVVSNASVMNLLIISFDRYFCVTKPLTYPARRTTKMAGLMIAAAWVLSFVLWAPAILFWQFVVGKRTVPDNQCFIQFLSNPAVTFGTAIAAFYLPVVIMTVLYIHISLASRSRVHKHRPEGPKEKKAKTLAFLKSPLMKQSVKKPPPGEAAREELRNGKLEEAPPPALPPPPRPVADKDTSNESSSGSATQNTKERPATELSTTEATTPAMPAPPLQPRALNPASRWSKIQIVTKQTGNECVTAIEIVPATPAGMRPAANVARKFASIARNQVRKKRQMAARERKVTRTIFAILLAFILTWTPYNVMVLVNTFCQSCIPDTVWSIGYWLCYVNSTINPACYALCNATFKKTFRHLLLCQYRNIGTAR

m2 muscarinic = conditions: Baumgold et al., Eur. J. of Pharmacol., 251, (1994) 315-317; cited from earlier work
[4] = 3H-QNB binding, membranes of transfected CHO cells, 25° C., 90 minutes, pH 7.4, read-out: Ki, m1
[5] = 3H-QNB binding, membranes of transfected CHO cells, 25° C., 90 minutes, pH 7.4, read-out: Ki, m2
[6] = 3H-QNB binding, membranes of transfected CHO cells, 25° C., 90 minutes, pH 7.4, read-out: Ki, m4

| Structure (SMILES) | pKi [1, 4] | pKi [2, 5] | m2 Selectivity Ratio (Ki,m1/Ki,m2) [2] | pKi [3, 6] | m4 Selectivity Ratio (Ki,m4/Ki,m2) [3] | m2 muscarinic antagonist selectivity (m2 muscarinic) | pKi [1] | pKi [2] | pKi [3] |
| --- | --- | --- | --- | --- | --- | --- | --- | --- | --- |
| N#CN(c1ccc(S(=O)(=O)c2ccc3c(c2)OCO3)cc1)C1CCN(C2CCCCC2)CC1 [Example 2AC] | 8.00 | 9.36 | 22.7 | 8.80 | 3.6 | – | – | – | – |
| N#CN(c1ccc(S(=O)(=O)C2CCCCC2)cc1)C1CCN(C2CCCCC2)CC1 [Example 2AK] | 6.63 | 7.73 | 17.2 | 7.59 | 1.4 | – | – | – | – |
| C[C@H]1CC[C@@H]2N(C1)C[C@H]1[C@@H]3C[C@H]4[C@@H](CC(=O)[C@H]5C[C@@H](Cl)CC[C@@]54C)[C@@H]3CC[C@H]1[C@]2(C)O [3-α-chloroimperialine] | – | – | – | – | – | highly selective m2 muscarinic antagonist | – | – | – |
| CC(=O)Nc1ccc([S+]([O-])c2ccc(N(C#N)C3CCN(C4CCCCC4)CC3)cc2)cc1 (stereo not shown) [Example 2AM] | 6.67 | 7.86 | 15.5 | 7.38 | 3.0 | – | – | – | – |
| C=CCN(c1ccc(S(=O)(=O)c2ccc(OC)cc2)cc1)C1CCN(C2CCCCC2)CC1 [Example 2I] | – | – | 12.7 | – | 2.7 | – | 7.33 | 8.43 | 8.00 |
| COc1ccc([S+]([O-])c2ccc(N(C#N)C3CCN(C4CCCCC4)CC3)cc2)cc1 (stereo not shown) [Example 2E] | 6.72 | 8.05 | 21.0 | 7.41 | 4.4 | – | – | – | – |
| COc1ccc(S(=O)(=O)c2ccc(N(C)C3CCN(C4CCCCC4)CC3)cc2)cc1 [Example 2G] | – | – | 18.8 | – | 3.3 | – | 6.55 | 7.82 | 7.30 |
